Consider twelve molecules from ChEMBL document CHEMBL1201862, “PubChem BioAssay data set” (2004).

The structures appear in SMILES notation.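 Step 1: Grow cells in 96-well plates. Step 2: Expose to compound for 48 hours at 5 concentrations. Step 3: Interpolate endpoints linearly; if unreached, use highest concentration. GI50: concentration for 50% inhibition of growth.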 Calls of active or inactive are those of the source. No stated cut-off is given here; in the data, active = GI50 up to about 1.1 µM and inactive = higher. Non-standard residues stand in square brackets, D forms with d. Residues, ends and D or L forms follow the SMILES beside them. *: point of attachment. Cbz = O=C(OCc1ccccc1)*; Boc = CC(C)(C)OC(=O)*; Aib = CC(C)(N)C(=O)O; OBn = c1ccc(CO*)cc1; OtBu = CC(C)(C)O*; βAla = NCCC(=O)O Bounds are passed on as bounds.

Some test systems named below: UACC-257; DU-145; NCI-H226; A498; HCT-15; HT-29; 786-0; MDA-MB-435; OVCAR-4; NCI-H522; SF-268; NCI/ADR-RES; SN12C; CAKI-1; A549; SK-MEL-28; Malme-3M; SNB-19.
Experiment in all cases: DTP human tumour cell line panel, 48 h

What is called GI50 is the concentration that inhibits growth by half. Turning to `CS(=O)(=O)OCC1CN(S(C)(=O)=O)c2cc(O)ccc21` (stereo not drawn), the GI50 in the test on UACC-257 was 2.68 µM (inactive); with DU-145 it was 2.8 µM (inactive); with NCI-H226 it was 3.33 µM (inactive); in the test on A498, 2.64 µM (inactive); with HCT-15, 3.1 µM; in the test with HT-29, 2.81 µM (inactive). For the same molecule, the GI50 was 3.67 µM (inactive) with 786-0; 2.02 µM (inactive) in the test with MDA-MB-435; 2.67 µM (inactive) with OVCAR-4; 1.11 µM (active) in the test with NCI-H522; 0.524 µM (active) in the test with SF-268; 3.09 µM (inactive) in the test with NCI/ADR-RES. Besides, the GI50 in the test with SN12C is 2.92 µM (inactive); with CAKI-1, 3.42 µM (inactive); in the test with A549, 3.43 µM (inactive); with SK-MEL-28, 3.47 µM (inactive); in the test on Malme-3M, 2.02 µM (inactive).
As to `COc1ccc(-c2c(C#N)c(O)n(C3OC(CO)C(O)C(O)C3O)c(=S)c2C#N)cc1` (stereo not drawn), the GI50 was > 100 µM (inactive) with UACC-257; > 100 µM (inactive) in the test on DU-145; > 100 µM (inactive) with NCI-H226; > 100 µM (inactive) with A498; greater than 100 µM in the test on HCT-15; > 100 µM (inactive) in the test on HT-29. The GI50 in the test with 786-0, with MDA-MB-435, with SNB-19, in the test on NCI-H522, in the test with SF-268 and with NCI/ADR-RES was > 100 µM (inactive) in each case. Also, the GI50 with SN12C, with CAKI-1, in the test with A549, in the test on SK-MEL-28 and in the test on Malme-3M was > 100 µM (inactive) each time.
Consider `O=[N+]([O-])c1cccnc1NCC1(CO)CC(Cc2ccccc2)C1` (stereo not drawn), for which the GI50 with UACC-257 was > 100 µM (inactive); in the test with DU-145, > 100 µM (inactive); with NCI-H226, 80.4 µM (inactive); with A498, > 100 µM (inactive); with HCT-15 it was greater than 100 µM; in the test with HT-29, > 100 µM (inactive). Besides, the GI50 in the test on 786-0, with MDA-MB-435, with OVCAR-4, in the test on NCI-H522, in the test on SF-268 and with NCI/ADR-RES was > 100 µM (inactive) in each case. Also, the GI50 with SN12C, in the test on CAKI-1, with A549, in the test with SK-MEL-28 and with Malme-3M was > 100 µM (inactive) each time.
As for `O=C(CC(C(=O)c1cccs1)c1ccc2c(c1)OCO2)c1ccccc1` (stereo not drawn), the GI50 in the test with UACC-257 is > 100 µM (inactive); in the test with DU-145 it was > 100 µM (inactive); in the test on NCI-H226, > 100 µM (inactive); with A498, > 100 µM (inactive); with HCT-15, greater than 100 µM; in the test with HT-29, > 100 µM (inactive). For the same molecule, the GI50 was > 100 µM (inactive) in the test on 786-0; 80.4 µM (inactive) in the test with MDA-MB-435; > 100 µM (inactive) with OVCAR-4; > 100 µM (inactive) with SNB-19; > 100 µM (inactive) with NCI-H522; > 100 µM (inactive) in the test on SF-268. The GI50 in the test with NCI/ADR-RES, with SN12C, in the test on CAKI-1, in the test on A549, in the test on SK-MEL-28 and in the test with Malme-3M was > 100 µM (inactive) each time.
Turning to `COC(=O)[C@]12CC[C@H]3CC[C@H]([C@H]31)[C@H](c1ccccc1)N2`, the GI50 with UACC-257 is 15.1 µM (inactive); in the test with DU-145, 18.5 µM (inactive); with NCI-H226, 15.4 µM (inactive); with A498 it was 17.6 µM (inactive); with HCT-15, 18.2 µM; with HT-29, 15.1 µM (inactive). Besides, the GI50 was 15.7 µM (inactive) in the test with 786-0; 18.3 µM (inactive) in the test on MDA-MB-435; 15.2 µM (inactive) in the test with OVCAR-4; 23 µM (inactive) with SNB-19; 20.5 µM (inactive) in the test on NCI-H522; 19.6 µM (inactive) in the test on SF-268. Besides, the GI50 with NCI/ADR-RES is 13.9 µM (inactive); with SN12C it was 15.7 µM (inactive); with CAKI-1 it was 17.7 µM (inactive); with A549, 17.7 µM (inactive); in the test with SK-MEL-28, 21.9 µM (inactive).
On to `CC(C)OP(=O)(CN(C)/C(F)=N\C(F)(F)F)OC(C)C`, for which the GI50 in the test on UACC-257 was > 100 µM (inactive); in the test with DU-145, > 100 µM (inactive); in the test with NCI-H226, > 100 µM (inactive); with A498 it was > 100 µM (inactive); in the test with HCT-15 it was greater than 100 µM; in the test on HT-29, > 100 µM (inactive). Further, the GI50 was > 100 µM (inactive) in the test on 786-0; > 100 µM (inactive) in the test with MDA-MB-435; > 100 µM (inactive) with SNB-19; 8.2 µM (inactive) with NCI-H522; > 100 µM (inactive) with SF-268; > 100 µM (inactive) in the test on NCI/ADR-RES. Further, the GI50 with SN12C, in the test on CAKI-1, in the test on A549, in the test with SK-MEL-28 and in the test on Malme-3M was > 100 µM (inactive) in each case.
Regarding `CCOC(=O)C(NC(=O)c1ccccc1)(Nc1ccc(Cl)cc1C(F)(F)F)C(F)(F)F` (stereo not drawn), the GI50 with UACC-257 is 9.64 µM (inactive); in the test on DU-145, 12.9 µM (inactive); in the test with NCI-H226 it was 16.7 µM (inactive); in the test with A498 it was 6.05 µM (inactive); in the test on HT-29, 2.15 µM (inactive); in the test on 786-0, 8.95 µM (inactive). In addition, the GI50 with MDA-MB-435 is 1.26 µM (inactive); with OVCAR-4, 9.77 µM (inactive); in the test on SNB-19 it was 5.48 µM (inactive); in the test on NCI-H522, 2.59 µM (inactive); in the test with SF-268 it was > 37.4 µM (inactive); in the test on NCI/ADR-RES it was 2.76 µM (inactive). Also, the GI50 is 4.45 µM (inactive) in the test with SN12C; 7.5 µM (inactive) in the test on CAKI-1; 4.59 µM (inactive) with A549; 6.97 µM (inactive) with SK-MEL-28; 3.37 µM (inactive) in the test on Malme-3M.
Consider `Nc1ncc(/C=N/O)c(NCC2(CO)CC(CCc3ccccc3)C2)n1` (stereo not drawn), for which the GI50 is 10.9 µM (inactive) in the test with UACC-257; 5.41 µM (inactive) with DU-145; 12.9 µM (inactive) in the test with NCI-H226; 11 µM (inactive) in the test with A498; 13.1 µM with HCT-15; 2.67 µM (inactive) with HT-29. Moreover, the GI50 in the test on 786-0 is 15.2 µM (inactive); in the test on MDA-MB-435 it was 11.1 µM (inactive); with OVCAR-4, 8.26 µM (inactive); in the test on NCI-H522 it was 3.22 µM (inactive); in the test with SF-268 it was 23.9 µM (inactive); in the test with NCI/ADR-RES, 5.82 µM (inactive). In addition, the GI50 in the test with SN12C was 17 µM (inactive); in the test with CAKI-1 it was 18.4 µM (inactive); in the test on A549 it was 2.48 µM (inactive); in the test on Malme-3M, 12.1 µM (inactive).
For `CC1=NC(=O)C(C)(c2ccccc2)N1CCc1ccccc1` (stereo not drawn), the GI50 was 72.9 µM (inactive) in the test with UACC-257; > 100 µM (inactive) with DU-145; 42.7 µM (inactive) in the test with NCI-H226; 21.7 µM (inactive) in the test with A498; 35.2 µM with HCT-15; 26.5 µM (inactive) with HT-29. Besides, the GI50 was > 100 µM (inactive) with 786-0; 75 µM (inactive) with MDA-MB-435; 25.6 µM (inactive) in the test on OVCAR-4; > 100 µM (inactive) in the test with SNB-19; > 100 µM (inactive) in the test with NCI-H522; > 100 µM (inactive) in the test on SF-268. In addition, the GI50 in the test on NCI/ADR-RES was 67.9 µM (inactive); in the test on SN12C, > 100 µM (inactive); in the test on CAKI-1, > 100 µM (inactive); in the test with A549, 27.3 µM (inactive); in the test with Malme-3M, > 100 µM (inactive).
Turning to `COc1ccc(OC)c2c(Nc3ccc(S(=O)(=O)O)c4cc(S(=O)(=O)O)cc(S(=O)(=O)O)c34)cc(C)nc12`, the GI50 is > 100 µM (inactive) in the test with UACC-257; > 100 µM (inactive) in the test with DU-145; > 100 µM (inactive) in the test on NCI-H226; > 100 µM (inactive) in the test with A498; greater than 100 µM with HCT-15; > 100 µM (inactive) in the test on HT-29. Further, the GI50 in the test on 786-0, in the test on MDA-MB-435, in the test on OVCAR-4, with NCI-H522, in the test on SF-268 and with NCI/ADR-RES was > 100 µM (inactive) in each case. Besides, the GI50 in the test on SN12C, in the test on CAKI-1, in the test with A549, in the test on SK-MEL-28 and in the test with Malme-3M was > 100 µM (inactive) throughout.
On to `C=C(C)C(=O)OC1C[C@H](COC(C)=O)C2CC=C(CO)C2C2OC(=O)C(=C)[C@H]12` (stereo partly drawn), for which the GI50 in the test on UACC-257 was 38.8 µM (inactive); in the test on DU-145 it was > 100 µM (inactive); in the test on NCI-H226, > 100 µM (inactive); in the test with A498, > 100 µM (inactive); with HCT-15 it was 24.8 µM; in the test on HT-29, 32.3 µM (inactive). In addition, the GI50 was 27.6 µM (inactive) in the test on 786-0; 35.3 µM (inactive) with MDA-MB-435; > 100 µM (inactive) in the test with SNB-19; 19.1 µM (inactive) with NCI-H522; 23.6 µM (inactive) in the test with SF-268; 45.4 µM (inactive) in the test on NCI/ADR-RES. The GI50 was 41.6 µM (inactive) in the test on CAKI-1, > 100 µM (inactive) in the test on A549, 32.3 µM (inactive) with SK-MEL-28 and 16.8 µM (inactive) with Malme-3M.
As to `CC(C)(C)OC(=O)CC(NC(=O)OC(C)(C)C)C(=O)NC(CCCCNC(=O)OCc1ccccc1)C(=O)NC(C)(C)C(=O)NCCC(=O)OCc1ccccc1` (stereo not drawn) (Boc-D(OtBu)K(Cbz)[Aib][βAla]-OBn; configuration not given here), the GI50 in the test on DU-145 was > 100 µM (inactive); in the test with NCI-H226, > 100 µM (inactive); in the test with A498 it was 86.3 µM (inactive); in the test with HCT-15 it was greater than 100 µM; in the test on HT-29 it was > 100 µM (inactive); with 786-0, > 100 µM (inactive). In addition, the GI50 in the test on MDA-MB-435, with OVCAR-4, in the test with SNB-19, in the test with NCI-H522, in the test with SF-268 and in the test with NCI/ADR-RES was > 100 µM (inactive) in each case. Besides, the GI50 in the test on SN12C, in the test on CAKI-1, in the test with A549, in the test on SK-MEL-28 and with Malme-3M was > 100 µM (inactive) in each case.
